Laboratory results from ChEMBL document CHEMBL4364273, “Discovery of SHR1653, a Highly Potent and Selective OTR Antagonist with Improved Blood-Brain Barrier Penetration” (ACS Med Chem Lett, 2019).
In brackets after ≈: the same amount, converted by molar mass.

Columns and labels:
[1] = Acute toxicity in rat assessed as effect on hematological parameters up to 300 mg/kg measured for 7 days; format: organism-based; settings: in vivo, 168 h
[2] = molecular target: Voltage-gated inwardly rectifying potassium channel KCNH2 (Homo sapiens, UniProt Q12809); assay: Inhibition of human ERG
[3] = Unbound fraction in Sprague-Dawley rat brain by LC-MS/MS analysis; format: ADME, tissue-based
[4] = Acute toxicity in rat assessed as effect on body weight at up to 300 mg/kg measured for 7 days; format: organism-based; settings: in vivo, 168 h
Cytochrome P450 2C9 = Cytochrome P450 2C9 (Homo sapiens, UniProt P11712); assay: Inhibition of human recombinant CYP2C9; format: ADME
[5] = Solubility of compound in FASSIF at pH 6.5; format: physicochemical
[6] = Half-life in Sprague-Dawley rat at 150 mg/kg, po measured for 24 hrs by LC-MS/MS analysis; format: ADME, organism-based; settings: in vivo
[7] = AUC (0 to 24 hrs) in Sprague-Dawley rat at 150 mg/kg, po by LC-MS/MS analysis; format: ADME, organism-based; design: time < 24 hr, dose 150 mg/kg, route oral; settings: in vivo
[8] = AUC (0 to 24 hrs) in Sprague-Dawley rat at 2 mg/kg, po by LC-MS/MS analysis; format: ADME, organism-based; design: time < 24 hr, dose 2 mg/kg, route oral; settings: in vivo
[9] = Acute toxicity in rat assessed as increase in urinary output at 900 mg/kg measured for 7 days; format: organism-based; settings: in vivo, 168 h
[10] = Safety index, ratio of NOAEL in rat to EC50 for inhibition of oxytocin-induced contractile response in po dosed Sprague-Dawley rat; format: toxicity, organism-based; settings: in vivo
[11] = Half-life in Beagle dog at 20 mg/kg, po measured for 24 hrs by LC-MS/MS analysis; format: ADME, organism-based, Canis lupus familiaris; settings: in vivo
[12] = Half-life in nude mouse at 4 mg/kg, po measured for 24 hrs by LC-MS/MS analysis; format: ADME, organism-based; settings: in vivo
[13] = Clearance in nude mouse at 1 mg/kg, iv measured for 24 hrs by LC-MS/MS analysis; format: ADME, organism-based; settings: in vivo
Homo sapiens [14] = species: Homo sapiens; assay: Selectivity ratio of IC50 for human vasopressin V1A receptor expressed in HEK293 cells to IC50 for human OTR expressed in HEK293 cells; format: cell-based
[15] = Unbound fraction in Sprague-Dawley rat plasma by LC-MS/MS analysis; format: ADME, cell-free
[16] = Tmax in nude mouse at 4 mg/kg, po measured for 24 hrs by LC-MS/MS analysis; format: ADME, organism-based; settings: in vivo
[17] = Cmax in Sprague-Dawley rat at 2 mg/kg, po measured for 24 hrs by LC-MS/MS analysis; format: ADME, organism-based; design: dose 2 mg/kg, route oral; settings: in vivo
[18] = Plasma concentration in Sprague-Dawley rat by LC-MS/MS analysis; format: ADME, cell-free
[19] = Half-life in Sprague-Dawley rat at 30 mg/kg, po measured for 24 hrs by LC-MS/MS analysis; format: ADME, organism-based; settings: in vivo
Cytochrome P450 3A4 [20] = molecular target: T1, Cytochrome P450 3A4 (Homo sapiens, UniProt P08684); assay: Inhibition of human recombinant CYP3A4 using midazolam as substrate; format: ADME
[21] = AUC (0 to 24 hrs) in anesthetized oxytocin-induced uterine contraction Sprague-Dawley rat model at 30 mg/kg, po; format: ADME, organism-based; design: dose 30 mg/kg, time < 24 hr, route oral; settings: in vivo
[22] = Clearance in Sprague-Dawley rat at 1 mg/kg, iv measured for 24 hrs by LC-MS/MS analysis; format: ADME, organism-based; settings: in vivo
Homo sapiens [23] = species: Homo sapiens; assay: Selectivity ratio of IC50 for human vasopressin V1B receptor expressed in HEK293 cells to IC50 for human OTR expressed in HEK293 cells; format: cell-based
[24] = AUC (0 to 24 hrs) in nude mouse at 4 mg/kg, po by LC-MS/MS analysis; format: ADME, organism-based; design: time < 24 hr, dose 4 mg/kg, route oral; settings: in vivo
Cytochrome P450 3A4 [25] = molecular target: T1, Cytochrome P450 3A4; assay: Inhibition of human recombinant CYP3A4 using testosterone as substrate; format: ADME
[26] = Cmax in Beagle dog at 2 mg/kg, po measured for 24 hrs by LC-MS/MS analysis; format: ADME, organism-based, Canis lupus familiaris; design: dose 2 mg/kg, route oral; settings: in vivo
[27] = Lipophilicity, log D of compound at pH 7.4; format: physicochemical; settings: buffer
[28] = Hepatic clearance in dog liver microsomes by LC-MS/MS analysis; format: ADME, Canis lupus familiaris, Microsome
[29] = AUC (0 to 24 hrs) in Beagle dog at 20 mg/kg, po by LC-MS/MS analysis; format: ADME, organism-based, Canis lupus familiaris; design: time < 24 hr, dose 20 mg/kg, route oral; settings: in vivo
Oxytocin receptor = molecular target: T2, Oxytocin receptor (Homo sapiens, UniProt P30559); assay: Antagonist activity at human OTR expressed in HEK293 cells assessed as decrease in calcium flux measured after 10 mins in […] by Fluo-4 dye based microplate reader based assay; format: functional, cell-based
T2 sequence (P30559 whole entry): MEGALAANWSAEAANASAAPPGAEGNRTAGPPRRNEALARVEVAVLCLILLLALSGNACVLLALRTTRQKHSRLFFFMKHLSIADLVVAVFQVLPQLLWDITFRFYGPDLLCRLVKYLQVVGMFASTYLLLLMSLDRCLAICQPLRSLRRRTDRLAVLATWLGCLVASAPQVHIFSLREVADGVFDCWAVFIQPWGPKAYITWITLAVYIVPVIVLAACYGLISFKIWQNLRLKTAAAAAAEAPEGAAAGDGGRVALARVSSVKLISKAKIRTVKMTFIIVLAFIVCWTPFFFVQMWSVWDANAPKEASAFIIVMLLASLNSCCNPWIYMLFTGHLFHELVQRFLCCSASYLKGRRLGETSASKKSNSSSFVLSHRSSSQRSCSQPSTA

[30] = Cmax in Sprague-Dawley rat at 150 mg/kg, po measured for 24 hrs by LC-MS/MS analysis; format: ADME, organism-based; design: dose 150 mg/kg, route oral; settings: in vivo
[31] = Hepatic clearance in human liver microsomes by LC-MS/MS analysis; format: ADME, Microsome
Cytochrome P450 2C19 = Cytochrome P450 2C19 (Homo sapiens, UniProt P33261); assay: Inhibition of human recombinant CYP2C19; format: ADME
[32] = Solubility of compound in PBS at pH 7.4; format: physicochemical
[33] = Tmax in Sprague-Dawley rat at 150 mg/kg, po measured for 24 hrs by LC-MS/MS analysis; format: ADME, organism-based; settings: in vivo
[34] = Tmax in Beagle dog at 20 mg/kg, po measured for 24 hrs by LC-MS/MS analysis; format: ADME, organism-based, Canis lupus familiaris; settings: in vivo
[35] = Tmax in Sprague-Dawley rat at 30 mg/kg, po measured for 24 hrs by LC-MS/MS analysis; format: ADME, organism-based; settings: in vivo
Rattus norvegicus [36] = assay: Anti-premature ejaculation activity in anesthetized oxytocin-induced uterine contraction Sprague-Dawley rat model assessed as decrease in intraluminal uterine pressure administered orally for 20 mins and 1 hr later treated with oxytocin and measured for 15 to 30 mins relative to control; format: functional
Rattus norvegicus [37] = assay: Anti-premature ejaculation activity in anesthetized oxytocin-induced uterine contraction Sprague-Dawley rat model assessed as decrease in intraluminal uterine pressure at 10 mg/kg, po treated for 20 mins and 1 hr later treated with oxytocin and measured for 15 to 30 mins relative to control; format: functional
[38] = Cmax in Beagle dog at 20 mg/kg, po measured for 24 hrs by LC-MS/MS analysis; format: ADME, organism-based, Canis lupus familiaris; design: dose 20 mg/kg, route oral; settings: in vivo
Homo sapiens [39] = species: Homo sapiens; assay: Selectivity ratio of IC50 for human vasopressin V2 receptor expressed in HEK293 cells to IC50 for human OTR expressed in HEK293 cells; format: cell-based
[40] = Acute toxicity in rat; settings: in vivo
[41] = Acute toxicity in rat assessed as effect on clinical parameters up to 300 mg/kg measured for 7 days; format: organism-based; settings: in vivo, 168 h

T1 sequence (P08684 whole entry): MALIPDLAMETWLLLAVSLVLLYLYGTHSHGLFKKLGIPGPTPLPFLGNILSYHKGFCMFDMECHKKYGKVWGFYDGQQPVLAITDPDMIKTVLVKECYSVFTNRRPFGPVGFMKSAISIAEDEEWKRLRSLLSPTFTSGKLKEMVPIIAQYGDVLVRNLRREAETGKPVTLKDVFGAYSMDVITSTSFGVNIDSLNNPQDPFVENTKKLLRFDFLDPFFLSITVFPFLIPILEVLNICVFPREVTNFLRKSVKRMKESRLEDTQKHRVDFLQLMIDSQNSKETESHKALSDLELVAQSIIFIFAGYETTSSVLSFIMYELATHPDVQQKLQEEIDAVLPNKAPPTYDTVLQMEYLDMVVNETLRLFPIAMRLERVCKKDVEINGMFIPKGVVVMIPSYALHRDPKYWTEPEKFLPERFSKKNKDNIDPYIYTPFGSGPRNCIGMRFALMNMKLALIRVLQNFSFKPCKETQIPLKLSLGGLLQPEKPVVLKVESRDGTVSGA
Chain of Cytochrome P450 2C9 (P11712 whole entry): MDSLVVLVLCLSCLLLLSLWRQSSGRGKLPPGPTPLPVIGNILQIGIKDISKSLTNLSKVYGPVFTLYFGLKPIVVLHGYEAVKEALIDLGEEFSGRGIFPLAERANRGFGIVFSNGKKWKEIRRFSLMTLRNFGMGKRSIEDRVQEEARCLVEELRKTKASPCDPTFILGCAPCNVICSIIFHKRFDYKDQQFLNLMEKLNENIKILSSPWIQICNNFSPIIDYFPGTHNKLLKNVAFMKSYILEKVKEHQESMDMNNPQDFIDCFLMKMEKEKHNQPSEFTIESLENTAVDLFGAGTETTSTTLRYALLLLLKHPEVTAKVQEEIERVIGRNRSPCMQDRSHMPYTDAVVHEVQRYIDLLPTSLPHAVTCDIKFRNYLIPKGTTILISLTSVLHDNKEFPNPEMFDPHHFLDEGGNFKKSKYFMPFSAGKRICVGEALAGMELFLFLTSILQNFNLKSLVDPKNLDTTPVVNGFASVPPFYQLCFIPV
Chain of Cytochrome P450 2C19 (P33261 whole entry): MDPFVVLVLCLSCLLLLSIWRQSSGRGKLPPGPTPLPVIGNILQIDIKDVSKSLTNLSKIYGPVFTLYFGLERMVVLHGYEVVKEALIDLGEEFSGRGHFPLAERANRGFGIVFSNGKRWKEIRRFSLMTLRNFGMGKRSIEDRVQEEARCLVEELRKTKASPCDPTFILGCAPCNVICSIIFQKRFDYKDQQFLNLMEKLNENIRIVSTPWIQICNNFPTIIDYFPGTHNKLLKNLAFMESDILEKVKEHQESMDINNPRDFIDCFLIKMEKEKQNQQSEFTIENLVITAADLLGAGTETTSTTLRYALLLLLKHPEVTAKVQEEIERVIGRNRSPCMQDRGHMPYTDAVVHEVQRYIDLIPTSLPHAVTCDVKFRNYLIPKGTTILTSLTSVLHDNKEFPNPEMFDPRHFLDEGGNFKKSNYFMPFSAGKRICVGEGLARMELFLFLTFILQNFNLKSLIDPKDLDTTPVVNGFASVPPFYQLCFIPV
Chain of Voltage-gated inwardly rectifying potassium channel KCNH2 (Q12809 whole entry): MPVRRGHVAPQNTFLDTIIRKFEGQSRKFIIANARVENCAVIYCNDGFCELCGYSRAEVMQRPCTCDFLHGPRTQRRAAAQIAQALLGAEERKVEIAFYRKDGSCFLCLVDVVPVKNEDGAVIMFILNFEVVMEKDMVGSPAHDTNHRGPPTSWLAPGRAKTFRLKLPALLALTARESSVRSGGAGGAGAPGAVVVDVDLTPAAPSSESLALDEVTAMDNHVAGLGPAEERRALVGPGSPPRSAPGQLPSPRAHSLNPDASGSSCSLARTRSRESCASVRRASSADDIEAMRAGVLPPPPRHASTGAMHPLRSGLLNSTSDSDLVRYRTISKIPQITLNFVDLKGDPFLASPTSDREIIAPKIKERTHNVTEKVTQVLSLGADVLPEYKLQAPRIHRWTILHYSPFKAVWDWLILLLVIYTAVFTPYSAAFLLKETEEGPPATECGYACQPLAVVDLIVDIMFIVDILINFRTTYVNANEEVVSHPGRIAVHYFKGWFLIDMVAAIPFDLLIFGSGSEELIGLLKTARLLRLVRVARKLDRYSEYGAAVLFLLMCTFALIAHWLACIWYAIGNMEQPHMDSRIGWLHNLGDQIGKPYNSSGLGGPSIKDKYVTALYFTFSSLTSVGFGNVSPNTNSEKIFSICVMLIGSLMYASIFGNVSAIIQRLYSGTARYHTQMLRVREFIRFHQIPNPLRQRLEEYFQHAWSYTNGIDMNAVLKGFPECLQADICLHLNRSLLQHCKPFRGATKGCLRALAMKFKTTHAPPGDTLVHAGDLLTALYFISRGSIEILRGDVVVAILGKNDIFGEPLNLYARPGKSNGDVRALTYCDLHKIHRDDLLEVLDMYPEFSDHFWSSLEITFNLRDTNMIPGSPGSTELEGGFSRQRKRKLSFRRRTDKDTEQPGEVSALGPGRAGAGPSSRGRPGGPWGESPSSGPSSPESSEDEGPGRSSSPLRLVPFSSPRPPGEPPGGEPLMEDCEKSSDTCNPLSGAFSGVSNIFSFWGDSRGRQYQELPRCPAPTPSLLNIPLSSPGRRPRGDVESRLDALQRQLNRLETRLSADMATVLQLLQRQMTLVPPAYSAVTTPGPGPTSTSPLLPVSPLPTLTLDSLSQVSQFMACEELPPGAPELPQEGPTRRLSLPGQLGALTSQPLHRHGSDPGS

What does the source list for `COCc1nnc(N2C[C@@H]3C[C@]3(c3ccc(F)cc3Cl)C2)n1-c1ccc(OC)nc1`?
Activity [1]: Non-Toxic; IC50 [2]: 16 µM; fraction unbound [3]: 0.0166; Activity [4]: Non-Toxic; IC50 (Cytochrome P450 2C9): > 30 µM; solubility [5]: 108 µM (≈ 46.2 µg/mL); half-life [6]: 3.24 h; AUC(0-t) at 24 h [7]: 57200 ng·h/mL; AUC(0-t) at 24 h [8]: 1680 ng·h/mL; Activity [9]: Toxic; selectivity ratio [10]: 10; half-life [11]: 3.38 h; half-life [12]: 1.9 h; clearance [13]: 31.3 mL/min/kg; Ratio IC50 (Homo sapiens [14]): 192; fraction unbound [15]: 0.0146; Tmax [16]: 0.5 h; Cmax [17]: 350 ng/mL; Cp [18]: 1379 ng/mL; half-life [19]: 2.23 h; IC50 (Cytochrome P450 3A4 [20]): > 30 µM; AUC(0-t) at 24 h [21]: 28300 ng·h/mL; clearance [22]: 16.1 mL/min/kg; Ratio IC50 (Homo sapiens [23]): 2500; AUC(0-t) at 24 h [24]: 548 ng·h/mL; IC50 (Cytochrome P450 3A4 [25]): 20 µM; Cmax [26]: 930 ng/mL; logD [27]: 2.86; CLhep predicted [28]: 20.3 mL/min/kg; AUC(0-t) at 24 h [29]: 58700 ng·h/mL; IC50 (Oxytocin receptor): 0.015 µM; Cmax [30]: 14000 ng/mL; CLhep predicted [31]: 14.8 mL/min/kg; IC50 (Cytochrome P450 2C19): 11 µM; solubility [32]: 420 µM (≈ 180 µg/mL); Tmax [33]: 0.67 h; Tmax [34]: 0.88 h; Tmax [35]: 0.63 h; ED (Rattus norvegicus [36]): 30 mg/kg; inhibition (Rattus norvegicus [36]): Dose-dependent effect; inhibition in vivo at 10 mg/kg (Rattus norvegicus [37]): 17.6%; Cmax [38]: 13500 ng/mL; Ratio IC50 (Homo sapiens [39]): 2170; MTD [40]: > 900 mg/kg; NOAEL [40]: 300 mg/kg; Activity [41]: Non-Toxic
